Experimental data: US12616203B2, “Use of 3-isoxazolidinones compounds as selective herbicides” (FMC Corporation, priority 2014, dated 2026)

Experiments:
[1] = system: Common cocklebur; experiment: Ex37 PRE 2,4-DC + atrazine, % control 28 DAT, Colby; format: in vivo, Xanthium strumarium
Excerpt: S-metolachlor (DUAL II MAGNUM®, 82.4%) at 525 g ai/h plus atrazine at 560 g ai/h was included as a standard for comparison. […] Thereafter flats were watered and fertilized routinely.

[2] = system: canola and wheat; experiment: Ex43 PRE crop safety; format: in vivo; conditions: crop and rate in the words
[3] = system: weeds; sweet corn, yellow corn, and sorghum; experiment: Ex31 PRE greenhouse; format: in vivo; conditions: weed and rate in the words
Excerpt: Flats were watered and fertilized routinely after treatment application.

[4] = system: yellow nutsedge (YN); experiment: PRE greenhouse, 2,4-DC + sulfentrazone, % control; format: in vivo, Cyperus esculentus; conditions: 28 DAT, g ai/ha by row: r8-16 2,4-DC 50/100/200 (3 rows each) + sulfentrazone 105/210/315 (cycling)
Description: Test compositions containing 2,4-DC Example 1B and sulfentrazone (Spartan® 4F, 39.6% active ingredient, FMC Corp.) and mixtures of 2-(2,4-dichlorophenyl)methyl-4,4-dimethyl-3-isoxazolidinone and sulfentrazone, were diluted with water to provide the appropriate test rate concentration.
The test weeds were Pennsylvania smartweed (PS) (Polygonum pennsylvanicum), Palmer amaranth (PA) (Amaranthus palmeri), velvetleaf (VL) (Abutilon theophrasti), green foxtail (GF) (Setaria viridis), morningglory (MG) (Ipomoea spp.), yellow nutsedge (YN) (Cyperus esculentus), purple nutsedge (PN) (Cyperus rotundus), and benghal dayflower (BD) (Commelina benghalensis). Crops included in the evaluation were corn, wheat, and cowpea.
For pre-emergence testing, four disposable fiber flats (6″ by 10″) for each rate of application of each herbicide solution were filled with top soil, to which seeds of each species were planted in furrows made by a template pressed on the top of the soil. The furrows with crop/weed seeds were covered with soil and were watered well before application of the test compounds. Flats designated for treatment were placed in a spray chamber having a static platform and a movable sprayer and height of the spray nozzle was 10.5 inches above the soil level. Once the sprayer was calibrated using water for spray volume of 30 gallons per acre, flats were sprayed with sprayer at a speed to receive a coverage equivalent of 30 gallons per acre.
The application rates are those shown in Table 3, 3A, an d 3B below for the individual herbicidal solutions and the herbicide compositions of the present invention. The pre-emergence flats were immediately placed in the greenhouse and watered lightly after treatment for herbicide activation. Thereafter they were regularly watered and feterilized for the duration of the test. The control of weeds was evaluated in each experimental test at 28 days after treatment (DAT), 14 DAT for crops. The results, shown as an average of the replications, were compared with results observed in untreated control flats in the same tests. Percent weed control was determined by a method similar to the 0 to 100 rating system disclosed in “Research Methods in Weed Science,” 2nd ed., B. Truelove, Ed.; Southern Weed Science Society; Auburn University, Auburn, Ala., 1977.

[5] = system: Yellow nutsedge; experiment: Ex39 PRE 2,4-DC + pyroxasulfone + carfentrazone, % control 28 DAT, Colby
[6] = system: weeds; experiment: Ex21 PRE greenhouse; format: in vivo; conditions: 28 DAT, weed and rate in the words
Excerpt: 2,4 DC (36.7% CS) was applied PRE at 0, 125, 170, 210, or 250 g ai/ha alone or as a tank-mix with S-metolachlor (Dual II Magnum®, 82.4%) at 0, 267, 534, 801, or 1070 g ai/ha. Pyroxasulfone plus fluthiacet-methyl (Anthem™, 23.3%) applied at 169.9 g ai/ha, and the tank-mix of mesotrione (Callisto®, 40%) at 123 g plus S-metolachlor (Dual II Magnum®, 82.4%) at 1252 g were included as standards for comparison. […] Thereafter flats were watered and fertilized routinely. Each treatment was replicated three times.

[7] = system: Wild buckwheat; experiment: Ex11 PRE 2,4-DC + clomazone, % control 28 DAT, Colby; format: in vivo, Polygonum convolvulus
Excerpt: The crop tested was Oilseed rape.
Additional treatments included applications of metazachlor (Butisan®, 43.1%) at 750 g ai/ha, napropamide (Devrinol DF®, 50%) at 1260 g, and dimethachlor (Teridox®, 48%) at 1000 g. […] Treatments were applied just after the planting of tall morningglory, wild mustard, common lambsquarters, Italian ryegrass, wild buckwheat, redroot pigweed, common chickweed, corn poppy, and oilseed rape.
Flats were watered and fertilized routinely after treatment application. Each treatment was replicated three times.

[8] = system: Black nightshade; experiment: Ex15 PRE 2,4-DC + S-metolachlor, % control 28 DAT, Colby; format: in vivo, Solanum nigrum
Excerpt: The weeds tested in this study were redroot pigweed (Amaranthus retroflexus, AMARE), Jimsonweed (Datura stramonium, DATST), black nightshade (Solanum nigrum, SOLNI), large crabgrass (Digitaria sanguinalis, DIGSA), Pennsylvania smartweed (Polygonum pensylvanicum, POLPY), horseweed (Conyza canadensis, ERICA), wild buckwheat (Polygonum convolvulus, POLCO). The crop tested was Corn (var. Viking).
To determine PRE efficacy and corn injury, five rates of each 2,4 DC (36.7% CS) and S-metolachlor (Dual II Magnum®, 82.4%) were applied either alone or as tank-mix. 2,4 DC was applied at 0, 125, 170, 210, or 250 g ai/ha and S-metolachlor was applied at 0, 267, 534, 801, or 1070 g ai/ha. Additional treatments included application of premix of pyroxasulfone plus fluthiacet-methyl (Anthem™ 23.3%) at 169.9 g ai/ha and tank-mix of mesotrione (Callisto®, 40%) at 123 g plus S-metolachlor at 1252 g. Treatments were applied just after the planting of large crabgrass, Jimsonweed, black nightshade, redroot pigweed, Pennsylvania smartweed, horseweed, wild buckwheat, and corn.
Flats were watered and fertilized routinely after treatment application. Each treatment was replicated three times. […] Corn injury was rated for bleaching and stunting.

[9] = system: weeds; canola, and wheat; experiment: Ex32 PRE greenhouse; format: in vivo; conditions: rate in the words
Excerpt: Treatments were applied at the time of planting to Italian ryegrass, green foxtail, littleseed canarygrass, wild oat, quackgrass, dandelion, common chickweed, white clover, yellow nutsedge, redroot pigweed, field bindweed, canola, and wheat. […] Flats were watered and fertilized routinely after treatment application.

[10] = system: Italian ryegrass; experiment: Ex36 POST 2,4-DC + metsulfuron-methyl, % control 28 DAT, Colby; format: in vivo, Lolium perenne L. ssp. multiflorum
Excerpt: Crops screened were wheat and barley.

For `CC1(C)CON(Cc2ccc(Cl)cc2Cl)C1=O` [2,4-DC, 2-(2,4-dichlorophenyl)methyl-4,4-dimethyl-3-isoxazolidinone], the X ([1]; 2,4-DC alone 50 g ai/ha) was 0%, the X ([1]; 2,4-DC alone 100 g ai/ha) was 7% and the X ([1]; 2,4-DC alone 200 g ai/ha) was 60%. The “crop safety in words” value [2] was “alone was safe (≤10% injury) on canola at ≤200 g ai/ha and safe on wheat at ≤100 g”, the “weed control in words” value [3] was “alone did not control any weeds except barnyardgrass” and the “% Control YN” value ([4]; r17-19 2,4-DC 50/100/200, r20-22 sulfentrazone 105/210/315, 50 g ai/ha) was 10%. For the same compound, the “% Control YN” value ([4]; r17-19 2,4-DC 50/100/200, r20-22 sulfentrazone 105/210/315, 100 g ai/ha) was 12%, the “% Control YN” value ([4]; r17-19 2,4-DC 50/100/200, r20-22 sulfentrazone 105/210/315, 200 g ai/ha) was 13% and the “X (% control, 2,4-DC alone)” value ([5]; PRE, 2,4-DC 50 g ai/ha) was 1%. For the same compound, the “X (% control, 2,4-DC alone)” value ([5]; PRE, 2,4-DC 100 g ai/ha) was 3%, the “X (% control, 2,4-DC alone)” value ([5]; PRE, 2,4-DC 200 g ai/ha) was 3% and the “weed control in words” value [6] was “applied alone controlled (≥85% injury) common chickweed at all rates, bamyardgrass at ≥210 g ai/ha, and green foxtail at 250 g”. The X ([7]; 2,4-DC alone 125 g ai/ha) was 10%, the X ([7]; 2,4-DC alone 170 g ai/ha) was 30% and the X ([7]; 2,4-DC alone 210 g ai/ha) was 22%. For the same compound, the X ([7]; 2,4-DC alone 250 g ai/ha) was 27%, the X ([8]; 2,4-DC alone 125 g ai/ha) was 32% and the X ([8]; 2,4-DC alone 170 g ai/ha) was 33%. The X ([8]; 2,4-DC alone 210 g ai/ha) was 47%, the X ([8]; 2,4-DC alone 250 g ai/ha) was 50% and the “weed control / crop safety in words” value [9] was “alone controlled Italian ryegrass and wild oat at 400 g; common chickweed was controlled at all rates; green foxtail was controlled at ≥100 g; littleseed canarygrass and redroot pigweed were controlled at 200 g”. It also gave an X ([10]; 2,4-DC alone 50 g ai/ha) of 22%, an X ([10]; 2,4-DC alone 100 g ai/ha) of 18% and an X ([10]; 2,4-DC alone 200 g ai/ha) of 29%.
